Measured values taken from PubChem BioAssay AID2823 (Broad Institute, 2010).
The source made the active and inactive calls. No rule for the calls is given here.

Biological target: RanGTP-importin-beta complex (human Ran / KPNB1)
Experiment: Ran–importin-beta interaction inhibitors, confirmation, biochemical, FRET, CFP/YFP, cell-free homogeneous (AID 2823)
Conditions: CFP-Ran/YFP-importin-beta FRET ratio

With `O=C(C1CCCCC1)N1CC(=O)N2CCc3ccccc3C2C1` (centres undefined) the IC50 was > 50 µM (inactive).
Compound `COc1cc(OC)cc(C(=O)NCCNc2nc3cc(C)cc(C)c3cc2C#N)c1` has an IC50 of 8.59 µM.
With `CC1(C)CC(=O)C=C(Nc2ccccc2O)C1` the IC50 was > 50 µM (inactive).
With `COc1ccc(-c2cc(C(=O)O)nc3ccc4ccccc4c23)cc1OC` the IC50 was > 50 µM (inactive).
For `CC1CN(c2cc(=O)n(-c3cccc(Br)c3)c(=O)[nH]2)CC(C)O1` (centres undefined), the IC50 was > 50 µM (inactive).
For `CCOC(=O)N1CCN(c2cc(=O)n(C3CCCCC3)c(=O)[nH]2)CC1`, the IC50 was > 50 µM (inactive).
For `CCc1nnc(NC(=O)c2c(C)nn(-c3ccccc3)c2Cl)s1`, the IC50 was > 50 µM (inactive).
With `Cc1ccc(NC(=O)C2CCN(S(=O)(=O)c3ccc(Cl)c(C(F)(F)F)c3)CC2)nc1` the IC50 was > 50 µM (inactive).
With `CC1=NC(Nc2nc(C)c3ccccc3n2)=NC(C)(C)C1` the IC50 was > 50 µM (inactive).
In the case of `O=c1[nH]c2cc(Br)cnc2nc1/C=C(\O)c1ccc(F)cc1`, the IC50 is reported as > 50 µM (inactive).
`O=[N+]([O-])c1ccc(S(=O)(=O)Nc2nnc(C3CCCCC3)s2)cc1` was tested, and the IC50 was > 50 µM (inactive).
For `Cc1cccc(OCC(=O)NNc2c3ccccc3nc3ccccc23)c1`, the IC50 was > 50 µM (inactive).
`CC(C)OC(=O)c1nnn(-c2nonc2N)c1CN1CCCCCC1` was tested, and the IC50 was > 50 µM (inactive).
In the case of `O=c1[nH]c2c(s1)C(c1ccco1)C1C3CCC(C3)C1S2` (centres undefined), the IC50 is reported as > 50 µM (inactive).
In the case of `CCN1/C(=C\C=C\C2=[N+](CC)c3ccccc3C2(C)C)C(C)(C)c2ccccc21`, the IC50 is reported as 9.18 µM.
For `O=C(c1ccc(Br)cc1)c1cc2ccc(O)cc2oc1=O`, the IC50 was 19.2 µM.
With `O=C(CCCO)NNc1c2ccccc2nc2ccccc12` the IC50 was > 50 µM (inactive).
`N#C/C(=C\N1CCN(Cc2ccc3c(c2)OCO3)CC1)c1nc2ccccc2s1` was tested, and the IC50 was > 50 µM (inactive).
For `O=C(NCc1ccccc1C(F)(F)F)C1CC(c2ccc(C(F)(F)F)cc2)=NO1` (centres undefined), the IC50 was > 50 µM (inactive).
For `Oc1c(C=Nc2ccccc2)sc(=S)n1Cc1ccccc1`, the IC50 was > 50 µM (inactive).
`Cn1c(N)c(C(=O)COC(=O)C2(c3ccc(F)cc3)CCCC2)c(=O)n(C)c1=O` was tested, and the IC50 was > 50 µM (inactive).
In the case of `Cc1c(C)c2cc(Cl)c(O)c(CN(C)C)c2oc1=O`, the IC50 is reported as 25.2 µM.
For `CCc1ccc(C(=O)CSc2ncn[nH]2)cc1`, the IC50 was > 50 µM (inactive).
With `Cn1c(=O)[nH]c2c(nc(-c3ccc(Cl)cc3)n2C)c1=O` the IC50 was 26.1 µM.
In the case of `O=C(/C=C/c1cccs1)Nc1ccc([N+](=O)[O-])cc1`, the IC50 is reported as > 50 µM (inactive).
Compound `O=c1c2ccccc2sc2ccc(C#CC3(O)CCCCC3)cc12` has an IC50 of 23.1 µM.
`Cc1ccccc1-n1nc2c(c1NC(=O)c1cc3ccccc3oc1=O)CS(=O)(=O)C2` was tested, and the IC50 was > 50 µM (inactive).
For `N#Cc1cc2cc3c(cc2nc1N1CCOCC1)OCO3`, the IC50 was 12.2 µM.
With `Cc1ccc2nc(N3CCN(C(=O)c4ccc(F)cc4)CC3)c(C#N)cc2c1` the IC50 was 23.3 µM.
In the case of `CC(=O)N1CN2CN(C(C)=O)CC(C(=O)c3ccccc3)(C2)C1`, the IC50 is reported as > 50 µM (inactive).
With `COc1ccc(-c2csc3ncnc(N4CCN(c5ccc(OC)cc5)CC4)c23)cc1` the IC50 was > 50 µM (inactive).
`C=CCN1CCc2cccc3c2[C@H]1Cc1ccc(O)c(O)c1-3` was tested, and the IC50 was > 50 µM (inactive).
`COC(=O)C1=CN(Cc2ccc(OC)c(OC)c2)C=C(C(=O)OC)C1c1cccc(O)c1` showed an IC50 of 14.3 µM.
For `COc1ccc(-c2c(C)c3ccc(O)cc3oc2=O)cc1`, the IC50 was 36.3 µM.
In the case of `CC(=O)Cc1nsc(NC(=O)c2ccc(-c3cccc(C(F)(F)F)c3)o2)n1`, the IC50 is reported as > 50 µM (inactive).
With `Cc1cccc(N2CCN(C(=O)C3COc4ccccc4O3)CC2)c1C` (centres undefined) the IC50 was > 50 µM (inactive).
With `COC(=O)c1cccnc1NC(=S)NNC(=O)c1ccccc1` the IC50 was > 50 µM (inactive).
`CCN(CC)c1ccc(/C=N/NC(=O)c2c(Cl)cnn2C)c(O)c1` was tested, and the IC50 was 6.2 µM.
In the case of `COc1ccc(CCNC(=O)c2cc3c(=O)n4ccccc4nc3n(CC3CCCO3)c2=N)cc1OC` (centres undefined), the IC50 is reported as 21.3 µM.
For `CC(C)Cc1nnc(NC(=O)Cc2cccs2)s1`, the IC50 was > 50 µM (inactive).
For `COc1cc2c(cc1NC(=S)Nc1cccc3ccccc13)oc1ccccc12`, the IC50 was > 50 µM (inactive).
Compound `CCN1CCN(Cc2c(O)c(Cl)cc3c(C)cc(=O)oc23)CC1` has an IC50 of 33.4 µM.
`CCOC(=O)/C(C#N)=C/c1ccc(N2CCN(C)CC2)cc1` was tested, and the IC50 was 16 µM.
`CCNc1nnc(CSc2nc3ccccc3s2)s1` was tested, and the IC50 was > 50 µM (inactive).
In the case of `Cc1ccc2nc(N3CCN(Cc4nnnn4Cc4ccccc4)CC3)c(C#N)cc2c1`, the IC50 is reported as 23 µM.
Work on `CCN(CC)Cc1c(O)c(Cl)cc2c3c(c(=O)oc12)CCCC3` yielded an IC50 of 20.6 µM.
`Cc1ccc(S(=O)(=O)N(C)Cc2ccc(C(=O)N/N=C3\CC(=O)CC(C)(C)C3)cc2)cc1` was tested, and the IC50 was > 50 µM (inactive).
`CCCNS(=O)(=O)c1ccc2c(c1)CCCN2C(C)=O` was tested, and the IC50 was > 50 µM (inactive).
With `Nc1nc(N2CCOCC2)nc(N(c2ccccc2)c2ccccc2)n1` the IC50 was > 50 µM (inactive).
Work on `CCOCCCNC(=S)NCCCNc1nc2cc3c(cc2cc1C#N)OCO3` yielded an IC50 of 9.41 µM.
For `Cc1cccc(C(=O)Nc2sc(C)c(-c3ccccc3)c2C#N)c1`, the IC50 was > 50 µM (inactive).
For `C[C@H](O)c1[nH]c2cc(F)ccc2c1[C@H](C)O`, the IC50 was > 50 µM (inactive).
For `CCOC(=O)c1c(NC(=O)C2CCCCC2)sc2c1CCN(C(C)C)C2`, the IC50 was > 50 µM (inactive).
In the case of `COc1ccc(S(=O)Cc2ccc(C(=O)NC3CC3)o2)cc1` (centres undefined), the IC50 is reported as > 50 µM (inactive).
Compound `CNC(=O)c1cc2c(ccc3ccccc32)oc1=N` has an IC50 of 5.26 µM.
`COCCCn1c(=N)c(C(=O)NCc2ccc3c(c2)OCO3)cc2c(=O)n3ccccc3nc21` was tested, and the IC50 was 28.4 µM.
`COc1cccc(NC(=O)Nc2ccc3c(c2)N(C)C(=O)CS3)c1` was tested, and the IC50 was > 50 µM (inactive).
With `O=C(Cc1cc(=O)oc2cc(O)ccc12)NCC1CCC(C(=O)O)CC1` (centres undefined) the IC50 was 10.4 µM.
In the case of `CCN1CCc2nc(NC(=O)c3cc(F)c(F)cc3Cl)sc2C1`, the IC50 is reported as > 50 µM (inactive).
With `CCN(CC)c1nc(-c2ccccc2)cc(C(F)(F)F)c1C#N` the IC50 was 7.28 µM.
`CCOC(=O)C1=C(C)NC2=C(C(=O)C(C(=O)OCC)C(c3ccc(OC)cc3)C2)C1c1ccccn1` (centres undefined) was tested, and the IC50 was 28.4 µM.
In the case of `CCCc1noc(-c2cccc([N+](=O)[O-])c2)n1`, the IC50 is reported as > 50 µM (inactive).
With `Cc1nc2ccccc2c2oc(C(=O)NCCCN3CCC(C)CC3)cc12` the IC50 was > 50 µM (inactive).
With `Cc1cc(C(=O)N2CCc3c([nH]c4ccccc34)C2c2c(F)cccc2Cl)no1` (centres undefined) the IC50 was > 50 µM (inactive).
`CCCn1nc(NC(=O)CC(C)C)c2cc3cccc(C)c3nc21` gave an IC50 of 5.82 µM.
In the case of `N#C/C(=C\c1ccc(N2CCOCC2)o1)C(=O)NC1CCCCC1`, the IC50 is reported as 2.76 µM.
`CSc1nsc2nc(=O)c(/C=C3\C=Nc4ccccc43)c(N)n12` was tested, and the IC50 was 22.6 µM.
`CC(=O)[C@@H]1[C@@H](C)N(Cc2ccccc2)C(=O)N[C@H]1c1cccc(C(F)(F)F)c1` was tested, and the IC50 was > 50 µM (inactive).
In the case of `CC(=O)c1c(N2CCN(C)CC2)nc(=S)n(-c2cc(C)ccc2C)c1C`, the IC50 is reported as > 50 µM (inactive).
`COc1ccccc1C(=O)NCCNc1nc2cc(C)cc(C)c2cc1C#N` was tested, and the IC50 was 39.5 µM.
With `COc1ccc(C(=O)NCCNc2nc3c(C)cccc3cc2C#N)cc1` the IC50 was 24.4 µM.
In the case of `Cn1c(=O)cc(N2CCCCC2)[nH]c1=O`, the IC50 is reported as > 50 µM (inactive).
`COc1ccc(NC(=O)CN2C(=O)CC(C)S(=O)(=O)c3ccccc32)cc1` (centres undefined) was tested, and the IC50 was > 50 µM (inactive).
`Cc1ccc(-n2c(O)c(/C=N/N3CCCCCC3)c(=O)[nH]c2=O)cc1C` was tested, and the IC50 was > 50 µM (inactive).
For `Oc1ccc(-c2[nH]ncc2-c2cccc3cccnc23)c(O)c1`, the IC50 was > 50 µM (inactive).
`CC1CCN(c2nc3ccccc3nc2C(C#N)C(=O)OC2CCCCC2)CC1` (centres undefined) was tested, and the IC50 was > 50 µM (inactive).
With `CCCN(CCO)Cc1cccc(Br)c1` the IC50 was > 50 µM (inactive).
With `Cc1cccc(C)c1NC(=O)C1=C(O)c2sccc2N(C)S1(=O)=O` the IC50 was 4.36 µM.
Work on `COC(=O)C1=CN(C2CC2)C=C(C(=O)OC)C1c1ccc(C(F)(F)F)cc1` yielded an IC50 of 30.8 µM.
In the case of `O=C(O)C1C2CCC(C2)C1C(=O)NCCc1ccc(F)cc1` (centres undefined), the IC50 is reported as > 50 µM (inactive).
For `CC(NCc1cccs1)C(=O)NC1CCCCC1` (centres undefined), the IC50 was > 50 µM (inactive).
In the case of `COc1cccc(C(=O)/C=C/Nc2cc(C)ccc2O)c1`, the IC50 is reported as > 50 µM (inactive).
In the case of `CCOC(=O)c1c(N2C(=O)Nc3ccccc3N2O)sc2c1CCCC2`, the IC50 is reported as > 50 µM (inactive).
With `O=C(NC1CCCCCC1)C(=S)NCCc1ccccc1` the IC50 was > 50 µM (inactive).
In the case of `CC(C)OC(=O)c1c(N)n(CCCN2CCOCC2)c2nc3ccccc3nc12`, the IC50 is reported as 25.8 µM.
For `NS(=O)(=O)c1cccc(NC(=O)CCSc2ccc(Cl)cc2)c1`, the IC50 was > 50 µM (inactive).
With `O=[N+]([O-])c1cc(CN2CCCC2)ccc1Sc1ccc(Cl)cc1` the IC50 was > 50 µM (inactive).
`Cc1ccc(-c2c(C#N)c(N)nc3c2CCCC3)s1` was tested, and the IC50 was 25.7 µM.
`c1ccc2c(c1)nc(NCC1CCCO1)c1nnnn12` (centres undefined) showed an IC50 of 30.3 µM.
For `CC(C)c1ccc(CN2CCC(Oc3ccc(C(=O)N4CCCC4)cc3)CC2)cc1`, the IC50 was > 50 µM (inactive).
For `CCOC(=O)c1sc(N/N=C/c2cc(Br)c(O)c(OC)c2)nc1C`, the IC50 was > 50 µM (inactive).
For `CC1CCCCN1Cc1c(O)ccc2c(=O)c(-c3nc4ccccc4s3)coc12` (centres undefined), the IC50 was less than 0.38 µM.
In the case of `CC1C=CCC2C(=O)N(c3ccccc3OC(=O)c3cccs3)C(=O)C12` (centres undefined), the IC50 is reported as > 50 µM (inactive).
In the case of `NS(=O)(=O)c1ccc(CCNC(=O)C2CCN(S(=O)(=O)c3ccc(Br)s3)CC2)cc1`, the IC50 is reported as > 50 µM (inactive).
In the case of `CCN1CCc2c(sc(NC(=O)c3ccc(S(=O)(=O)N4CC(C)OC(C)C4)cc3)c2C(N)=O)C1` (centres undefined), the IC50 is reported as > 50 µM (inactive).
In the case of `NC(=O)c1ccc(F)cc1`, the IC50 is reported as > 50 µM (inactive).
With `COC(=O)C1=CN(CC2CCCO2)C=C(C(=O)OC)C1c1cccc(O)c1` (centres undefined) the IC50 was 14.1 µM.
`CN1CCCN(C(=O)Cc2c(Cl)cccc2Cl)c2nc3ccccc3nc21` was tested, and the IC50 was 36.5 µM.
With `CN(CCOc1ccccc1)CC(=O)Nc1ccc(Cl)cc1[N+](=O)[O-]` the IC50 was > 50 µM (inactive).
In the case of `C/C(=N\N)c1c(-c2ccccc2)c2cc(Br)ccc2[nH]c1=O`, the IC50 is reported as > 50 µM (inactive).
In the case of `CCn1c2ccccc2c2cc(NC(=O)CNC)ccc21`, the IC50 is reported as > 50 µM (inactive).
`CCC(=O)Nc1c(S(=O)(=O)c2ccccc2)c2nc3ccccc3nc2n1Cc1ccccc1` was tested, and the IC50 was 20.9 µM.
`COc1cc(CN2CCN(Cc3c[nH]c4ccccc34)CC2CCO)cc(OC)c1` (centres undefined) was tested, and the IC50 was > 50 µM (inactive).
With `CN(C)S(=O)(=O)c1ccc(N2CCCC2)c(C(=O)NC(c2ccccc2)c2ccccc2)c1` the IC50 was > 50 µM (inactive).
